The IC50 is the concentration at which inhibition is half-maximal.

In the assay the test system is JAK1-dependent STAT6 phosphorylation downstream of IL-13 stimulation in TF-1 human erythroleukemia cells. The assay is described as follows: cells. The following applies: TF-1, read-out: IL-13-pSTAT6 IC50.
Description: Inhibitor potency (EC50) was determined in cell-based assays designed to measure JAK1 dependent STAT phosphorylation.
Prior to use in the assays, TF-1 cells were starved of GM-CSF overnight in OptiMEM medium (Life Technologies, Grand Island, N.Y.) supplemented with 0.5% charcoal/dextran stripped fetal bovine serum (FBS), 0.1 mM non-essential amino acids (NEAA), and 1 mM sodium pyruvate. The assays were run in 384-well plates in serum-free OptiMEM medium using 300,000 cells per well. In a second assay approach, BEAS-2B human bronchial epithelial cells obtained from ATCC were plated at 100,000 cells per well of a 96-well plate one day prior to the experiment. The BEAS-2B assay was run in complete growth medium (bronchial epithelial basal medium plus bulletkit; Lonza; Basel, Switzerland).
Test compounds were serially diluted 1:2 in DMSO and then diluted 1:50 in medium just before use. Diluted compounds were added to the cells, for a final DMSO concentration of 0.2%, and incubated for 30 min (for the TF-1 assay) or 1 hr (for the BEAS-2B assay) at 37° C. Then, cells were stimulated with human recombinant cytokine at their respective EC90 concentrations, as previously determined for each individual lot. […] The resultant samples were frozen in the plates at −80° C. Compound mediated inhibition of STAT6 phosphorylation was measured in the cell lysates using MesoScale Discovery (MSD) technology (Gaithersburg, Md.).
Turning to `CN1CCCCC1C1CCCN1C(=O)c1ccc(Nc2nc3c(N4CCC(O)(c5ccc(Cl)cc5)CC4)cccn3n2)cc1` (centres unmarked) [Example 1-52, [4-[[8-[4-(4-chlorophenyl)-4-hydroxy-1-piperidyl]-[1,2,4]triazolo[1,5-a]pyridin-2-yl]amino]phenyl]-[2-(1-methyl-2-piperidyl)pyrrolidin-1-yl]methanone], the 50% inhibitory concentration (IC50) came to 21.1 nM.
As for `CC(=O)N1CC2(C1)CN(C(=O)c1ccc(Nc3nc4c(N5CCC(O)(c6ccc(Cl)cc6)CC5)cccn4n3)cc1)C2` [Example 1-53, 1-[2-[4-[[8-[4-(4-chlorophenyl)-4-hydroxy-1-piperidyl]-[1,2,4]triazolo[1,5-a]pyridin-2-yl]amino]benzoyl]-2,6-diazaspiro[3.3]heptan-6-yl]ethanone], the figure is 27.4 nM.
For `O=C(c1ccc(Nc2nc3c(N4CCC(O)(c5ccc(Cl)cc5)CC4)cccn3n2)cc1)N1CCN(C2CC2)CC1` [Example 1-54, [4-[[8-[4-(4-chlorophenyl)-4-hydroxy-1-piperidyl]-[1,2,4]triazolo[1,5-a]pyridin-2-yl]amino]phenyl]-(4-cyclopropylpiperazin-1-yl)methanone], the IC50 is 100 nM.
As for `CN1CCC2(C1)CN(C(=O)c1ccc(Nc3nc4c(N5CCC(O)(c6ccc(Cl)cc6)CC5)cccn4n3)cc1)C2` [Example 1-59, [4-[[8-[4-(4-chlorophenyl)-4-hydroxy-1-piperidyl]-[1,2,4]triazolo[1,5-a]pyridin-2-yl]amino]phenyl]-(7-methyl-2,7-diazaspiro[3.4]octan-2-yl)methanone], the IC50 amounted to 15.5 nM.
The value for `CN1CCCC12CN(C(=O)c1ccc(Nc3nc4c(N5CCC(O)(c6ccc(Cl)cc6)CC5)cccn4n3)cc1)C2` [Example 1-60, [4-[[8-[4-(4-chlorophenyl)-4-hydroxy-1-piperidyl]-[1,2,4]triazolo[1,5-a]pyridin-2-yl]amino]phenyl]-(5-methyl-2,5-diazaspiro[3.4]octan-2-yl)methanone] was 12.2 nM.
For the compound `CN1CCC(NC(=O)c2ccc(Nc3nc4c(N5CCC(O)(c6ccc(Cl)cc6)CC5)cccn4n3)cc2)C1` (centres unmarked) [Example 1-62, 4-[[8-[4-(4-chlorophenyl)-4-hydroxy-1-piperidyl]-[1,2,4]triazolo[1,5-a]pyridin-2-yl]amino]-N-(1-methylpyrrolidin-3-yl)benzamide], the IC50 was found to be 22.8 nM.
Consider `CN(C)C(=O)C1(c2ccncc2)CCCN1C(=O)c1ccc(Nc2nc3c(N4CCC(O)(c5ccc(Cl)cc5)CC4)cccn3n2)cc1` (centres unmarked) [Example 1-74, 1-[4-[[8-[4-(4-chlorophenyl)-4-hydroxy-1-piperidyl]-[1,2,4]triazolo[1,5-a]-pyridin-2-yl]amino]benzoyl]-N,N-dimethyl-2-(4-pyridyl)pyrrolidine-2-carboxamide], for which the IC50 is 33.5 nM.
The value for `CN1C[C@@H]2CCN(C(=O)c3ccc(Nc4nc5c(N6CCC(O)(c7ccc(Cl)cc7)CC6)cccn5n4)cc3)[C@@H]2C1` [Example 1-76, [(3aS,6aS)-5-methyl-2,3,3a,4,6,6a-hexahydropyrrolo[2,3-c]pyrrol-1-yl]-[4-[[8-[4-(4-chlorophenyl)-4-hydroxy-1-piperidyl]-[1,2,4]triazolo[1,5-a]pyridin-2-yl]amino]phenyl] methanone] was 12.7 nM.
Turning to `CN1CCC2(CC1)CN(C(=O)c1ccc(Nc3nc4c(N5CCC(O)(c6ccc(Cl)cc6)CC5)cccn4n3)cc1)C2` [Example 1-81, [4-[[8-[4-(4-chlorophenyl)-4-hydroxy-1-piperidyl]-[1,2,4]triazolo[1,5-a]pyridin-2-yl]amino]phenyl]-(7-methyl-2,7-diazaspiro[3.5]nonan-2-yl)methanone], the IC50 was 10.9 nM.
In the case of `CN(C)C1CCN(C(=O)c2ccc(Nc3nc4c(N5CCC(O)(c6ccc(Cl)cc6)CC5)cccn4n3)cc2)CC1` [Example 1-86, [4-[[8-[4-(4-chlorophenyl)-4-hydroxy-1-piperidyl]-[1,2,4]triazolo[1,5-a]pyridin-2-yl]amino]phenyl]-[4-(dimethylamino)-1-piperidyl]methanone], the IC50 is 21.3 nM.
Regarding `O=C(N[C@H]1CN2CCC1CC2)c1ccc(Nc2nc3c(N4CCC(O)(c5ccc(Cl)cc5)CC4)cccn3n2)cc1` [Example 1-89, 4-[[8-[4-(4-chlorophenyl)-4-hydroxy-1-piperidyl]-[1,2,4]triazolo[1,5-a]pyridin-2-yl]amino]-N-[(3R)-quinuclidin-3-yl]benzamide], the half-maximal inhibitory concentration (IC50) came out at 127 nM.
For the compound `CN1CC(NC(=O)c2ccc(Nc3nc4c(N5CCC(O)(c6ccc(Cl)cc6)CC5)cccn4n3)cc2)C1` [Example 1-92, 4-[[8-[4-(4-chlorophenyl)-4-hydroxy-1-piperidyl]-[1,2,4]triazolo[1,5-a]pyridin-2-yl]amino]-N-(1-methylazetidin-3-yl)benzamide], the IC50 turned out to be 59.3 nM.
The value for `O=C(NCCN1CCC(O)CC1)c1ccc(Nc2nc3c(N4CCC(O)(c5ccc(Cl)cc5)CC4)cccn3n2)cc1` [Example 1-95, 4-[[8-[4-(4-chlorophenyl)-4-hydroxy-1-piperidyl]-[1,2,4]triazolo[1,5-a]pyridin-2-yl]amino]-N-[2-(4-hydroxy-1-piperidyl)ethyl] benzamide] was 115 nM.
As for `CN1CCN(CCCNC(=O)c2ccc(Nc3nc4c(N5CCC(O)(c6ccc(Cl)cc6)CC5)cccn4n3)cc2)CC1` [Example 1-96, 4-[[8-[4-(4-chlorophenyl)-4-hydroxy-1-piperidyl]-[1,2,4]triazolo[1,5-a]pyridin-2-yl]amino]-N-[3-(4-methylpiperazin-1-yl)propyl]benzamide], the figure is 64.6 nM.
As for `CN1CCN(CCNC(=O)c2ccc(Nc3nc4c(N5CCC(O)(c6ccc(Cl)cc6)CC5)cccn4n3)cc2)CC1` [Example 1-97, 4-[[8-[4-(4-chlorophenyl)-4-hydroxy-1-piperidyl]-[1,2,4]triazolo[1,5-a]pyridin-2-yl]amino]-N-[2-(4-methylpiperazin-1-yl)ethyl]benzamide], the figure is 25 nM.
Turning to `O=C(NCCN1CCOCC1)c1ccc(Nc2nc3c(N4CCC(O)(c5ccc(Cl)cc5)CC4)cccn3n2)cc1` [Example 1-101, 4-[[8-[4-(4-chlorophenyl)-4-hydroxy-1-piperidyl]-[1,2,4]triazolo[1,5-a]pyridin-2-yl]amino]-N-(2-morpholinoethyl)benzamide], the IC50 is 14 nM.
In the case of `CN1CCCCC1CNC(=O)c1ccc(Nc2nc3c(N4CCC(O)(c5ccc(Cl)cc5)CC4)cccn3n2)cc1` (centres unmarked) [Example 1-103, 4-[[8-[4-(4-chlorophenyl)-4-hydroxy-1-piperidyl]-[1,2,4]triazolo[1,5-a]pyridin-2-yl]amino]-N-[(1-methyl-2-piperidyl)methyl]benzamide], the IC50 was 23.8 nM.
In the case of `CN1CCC(NC(=O)c2ccc(Nc3nc4c(N5CCC(O)(c6ccc(Cl)cc6)CC5)cccn4n3)cc2)CC1` [Example 1-105, 4-[[8-[4-(4-chlorophenyl)-4-hydroxy-1-piperidyl]-[1,2,4]triazolo[1,5-a]pyridin-2-yl]amino]-N-(1-methyl-4-piperidyl)benzamide], the IC50 came out at 14.1 nM.
For the compound `CN(Cc1ccncc1)C(=O)c1ccc(Nc2nc3c(N4CCC(O)(c5ccc(Cl)cc5)CC4)cccn3n2)cc1` [Example 1-111, 4-[[8-[4-(4-chlorophenyl)-4-hydroxy-1-piperidyl]-[1,2,4]triazolo[1,5-a]pyridin-2-yl]amino]-N-methyl-N-(4-pyridylmethyl)benzamide], the half-maximal inhibitory concentration (IC50) worked out at 15.6 nM.
Take `CN1CCN(C(=O)C2CCN(C(=O)c3ccc(Nc4nc5c(N6CCC(O)(c7ccc(Cl)cc7)CC6)cccn5n4)cc3)CC2)CC1` [Example 1-113, [4-[[8-[4-(4-chlorophenyl)-4-hydroxy-1-piperidyl]-[1,2,4]triazolo[1,5-a]pyridin-2-yl]amino]phenyl]-[4-(4-methylpiperazine-1-carbonyl)-1-piperidyl]methanone]: the half-maximal inhibitory concentration (IC50) was found to be 26.7 nM.
For `O=C(c1ccc(Nc2nc3c(N4CCC(O)(c5ccc(Cl)cc5)CC4)cccn3n2)cc1)N1CCCN(c2ccncc2)CC1` [Example 1-114, [4-[[8-[4-(4-chlorophenyl)-4-hydroxy-1-piperidyl]-[1,2,4]triazolo[1,5-a]pyridin-2-yl]amino]phenyl]-[4-(4-pyridyl)-1,4-diazepan-1-yl]methanone], the IC50 worked out at 29.7 nM.
Regarding `O=C(c1ccc(Nc2nc3c(N4CCC(O)(c5ccc(Cl)cc5)CC4)cccn3n2)cc1)N1CCN(CCn2ccnc2)CC1` [Example 1-116, [4-[[8-[4-(4-chlorophenyl)-4-hydroxy-1-piperidyl]-[1,2,4]triazolo[1,5-a]pyridin-2-yl]amino]phenyl]-[4-(2-imidazol-1-ylethyl)piperazin-1-yl]methanone], the IC50 came out at 34 nM.
The value for `O=C(c1ccc(Nc2nc3c(N4CCC(O)(c5ccc(Cl)cc5)CC4)cccn3n2)cc1)N1CCCCC1Cc1ccccn1` (centres unmarked) [Example 1-121, [4-[[8-[4-(4-chlorophenyl)-4-hydroxy-1-piperidyl]-[1,2,4]triazolo[1,5-a]pyridin-2-yl]amino]phenyl]-[2-(2-pyridylmethyl)-1-piperidyl]methanone] was 131 nM; that for `CN1CCCC(CNC(=O)c2ccc(Nc3nc4c(N5CCC(O)(c6ccc(Cl)cc6)CC5)cccn4n3)cc2)C1` (centres unmarked) [Example 1-141, 4-[[8-[4-(4-chlorophenyl)-4-hydroxy-1-piperidyl]-[1,2,4]triazolo[1,5-a]pyridin-2-yl]amino]-N-[(1-methyl-3-piperidyl)methyl]benzamide] was 57.9 nM; that for `CNC(=O)C1CN(C)CCN1C(=O)c1ccc(Nc2nc3c(N4CCC(O)(c5ccc(Cl)cc5)CC4)cccn3n2)cc1` (centres unmarked) [Example 1-152, 1-[4-[[8-[4-(4-chlorophenyl)-4-hydroxy-1-piperidyl]-[1,2,4]triazolo[1,5-a]pyridin-2-yl]amino]benzoyl]-N,4-dimethyl-piperazine-2-carboxamide] was 65 nM.
Regarding `CN(C)C(=O)C1CN(C(=O)c2ccc(Nc3nc4c(N5CCC(O)(c6ccc(Cl)cc6)CC5)cccn4n3)cc2)C1` [Example 1-164, 1-[4-[[8-[4-(4-chlorophenyl)-4-hydroxy-1-piperidyl]-[1,2,4]triazolo[1,5-a]pyridin-2-yl]amino]benzoyl]-N,N-dimethyl-azetidine-3-carboxamide], the half-maximal inhibitory concentration (IC50) came to 10.8 nM.

The record behind these values is patent publication US9873709B2 (priority 2013, dated 2018).
